Tests used:
[1] = system: retinal ganglion cells (RGC); assay: NMDA retinal damage model, scotopic electroretinogram A and B waves; assay type: in vivo, rats; details: for A wave, % Baseline, Intravitreal / B wave, % Baseline, Intravitreal: intravitreal 2 mM co-administered with 2 ul 10 mM NMDA; for A wave, % Baseline, Topical / B wave, % Baseline, Topical: topical 100 mM, 20 μl 3 times per day, 5 days prior and 3 days post-NMDA
Protocol: Changes in electroretinogram (ERG) A and B waves have been used as indicators of RGC damage. To examine RGC neuroprotection, 2 ul intravitreal injections of 10 mM NMDA, sufficient to change ERG A and B-waves within 2 weeks, were challenged with co-administered intravitreal (2 mM) or topical 100 mM MPDTE, MPSEDE and amifostine in normal rats unilaterally. For topical administration, rats were pretreated for 5 days prior and 3 days post-NMDA administration with the agents at a frequency of 3 times per day with 20 μl agent. Scotopic ERG changes were measured in normal rats. Rats were dark adapted for at least 4 hrs. Eyes were dilated with atropine after which proparacaine and methylcellulose gel were applied topically. Custom made AgCl electrodes (64-1317, Warner Instruments, Hamden, Conn.) were placed on the apex of the cornea. Stimuli consisted of 10-microsec flashes of unattenuated white light generated by Ganzfield bowl photo stimulator (Grass Instruments, PS22, Quincy, Mass.). Data from each eye was recorded separately with a driver amplifier (Grass Instruments, Model 7DAF Polygraph, Quincy, Mass.). Data was acquired digitally via DASYLab (Bedford, N.H.). The contralateral normal eye served as an age matched negative control, e.g. response in a normal, undamaged eye. Differences in amplitude of the A-wave and B-waves between the treated eye and the contralateral eye and between treatment groups were calculated.

[2] = system: intraocular pressure (IOP); assay: Topical application for IOP measurements on rat surgical glaucoma (ocular hypertensive) model; assay type: in vivo, male SpragueDawley rats
Protocol: Ocular hypertension was induced in 9 male SpragueDawley rats, weighing between 400 to 500 grams. Under general anesthesia with acepromazine maleate (12 mg/Kg) and ketamine (80 mg/Kg), IP, and topical proparacaine (0.5%), dissection of the conjunctiva was made with fine cuts. To reduce the stimulus for revascularization or neovascularization, dissection of the right eye was limited to the area immediately surrounding the vortex veins. Three of four vortex veins were exposed and ligated using 9.0 nylon sutures. Criterion for inclusion into the study was an intraocular pressure (IOP) increase of 5 mm Hg or more when compared to […] baseline IOP. Within 6 weeks, the IOP of all the operated eyes increased at least 5 mm Hg compared to baseline. National Institutes of Health Guidelines and Association for Research in Vision and Ophthalmology statement for the Use and Care of Animals were followed in this study.
Prior to initiation of treatment, baseline IOP was obtained in glaucoma rat models. IOP was measured via a specially modified Goldmann applanation tonometer (HAAG-STREIT, Bern, Switzerland) under sedation. Measurements are averages of two consecutive readings and were made at the same time of day and by the same observers.
Rats were treated topically with 20 μl of MP compounds (0.3-100 mM; n=3-6) on the operated eyes. […]

H9C2 cells = assay: Doxorubicin chemotoxicity on H9C2 cells, intracellular calcium by fluo-3 AM; assay type: cell-based, rat; details: 10 min exposure to 50 μM doxorubicin, cells without MPDTE pretreatment
Protocol: H9C2 cells, which are used as models for rat striated muscle, were cultured using techniques described previously (Lattanzio, F A Jr., Tiangco, D., Osgood, C., Beebe, S., Kerry, J. and Hargrave B Y. Cocaine increases intracellular calcium and reactive oxygen species, depolarizes mitochondria, and activates genes associated with heart failure and remodeling. Cardiovascular Toxiology (20050 5: 377-389). Fluorescent calcium indicator and ROS indicator were used to determine if the reported increase in intracellular calcium and ROS activity occurred and whether these changes were reduced in the presence of 2 mM MPSEDE or MPDTE. Cells were measured using a Zeiss 510 fluorescent confocal microscope as described in Lattanzio et al, 2005.
H9C2 cells, a rat myocyte model, were cultured in MEM until confluent using techniques described in Lattanzio et al, 2005. The cells were treated with 5 μM fluo-3 AM, a fluorescent calcium indicator, for 30 min at 37 C, washed and then exposed to 50 μM doxorubicin (a supermaximal toxic dose), in the presence or absence of 30 min pretreatment with 2 mM MPDTE. Doxorubicin increases intracellular calcium in cardiac cells by disrupting calcium homeostasis through the production of free radical damage and subsequent membrane damage. […] Protection may have occurred due to a combination of free radical scavenging and calcium chelation.

Compound	A wave, % Baseline, Intravitreal [1] [% Baseline]	B wave, % Baseline, Intravitreal [1] [% Baseline]	A wave, % Baseline, Topical [1] [% Baseline]	B wave, % Baseline, Topical [1] [% Baseline]	IOP reduction of the components ([2]; MP or DTE administered alone or together, not as great as with MPDTE, FIG. 10)	increase of intracellular calcium (H9C2 cells) [%]	IOP reduction ([2]; single topical dose of 10-100 mM, FIG. 5-7)	reduction of NMDA damage ([1]; both intravitreal and topical administration (Table 1))	reduction of NMDA damage ([1]; co-administration with NMDA, at the dose tested)
CN[C@H](CC(=O)O)C(=O)O [NMDA, N-methyl-D-aspartate]	51.2	68.4	51.2	68.4	–	–	–	–	–
polyethylene glycol monomethyl ether [MP]	–	–	–	–	reduction in IOP	–	–	–	–
NCCCNCCSP(=O)(O)O [amifostine, S-2-[3-aminopropylamino]ethylphosphorothioate]	94.2	83.3	69.4	99.3	–	–	–	–	–
COc1cccc2c1C(=O)c1c(O)c3c(c(O)c1C2=O)C[C@@](O)(C(=O)CO)C[C@@H]3O[C@H]1C[C@H](N)[C@H](O)[C@H](C)O1 [doxorubicin]	–	–	–	–	–	59.4	–	–	–
methoxypolyethlene glycol thioester of ethylenediaminetetraacetic acid methyl triester [MPSEDE]	76.2	69.6	95.9	93.7	–	–	significantly reduced IOP	significantly reduced NMDA damage	trend to reduce NMDA damage, but this was not significant
